In data set [1] the test system is GIANT FOXTAIL. The data set can be described thus: Effect of DTPA, EDTA and other adjuvants on glyphosate efficacy on giant foxtail (% control). The format is in vivo. Conditions: combined experiments 1 and 2, 10 gpa, 25 psi.
Data set [2] concerns VELVETLEAF
Briefly: Effect of DTPA on glyphosate efficacy on velvetleaf (% control). The format is in vivo. Conditions: Table 3, combined experiments 1, 2 and 3, 10 gpa, 25 psi, glyphosate 0.25 lb a.e./A.

The conditions of data set [3]: approximate values given by way of illustration; cited from earlier work.
Data set [4] concerns TOMATO. As to conditions: for % INJURY 7 DAT: rated 7 DAT; for % INJURY 10 DAT: rated 10 DAT; for % INJURY 14 DAT: rated 14 DAT; for % INJURY 21 DAT: rated 21 DAT; for % INJURY 28 DAT: rated 28 DAT. The text has this:
Reduction in herbicide volatility can be characterized using the procedure generally set forth in Penner U.S. Publication No. 2016/0255832, which includes a bioassay system for evaluating herbicide volatilization from plant substrates (e.g., using wheat and soybean plants or equivalent in a plant growth chamber with a selected adjuvant/herbicide composition including a volatile growth regulator herbicide and an aminopolycarboxylate salt). A wide range of soil, plant, environmental, and herbicide factors (e.g., vapor pressure and water solubility of herbicide, surface characteristics) can affect herbicide volatility from soils and plants. Comparison of the volatilization would be most readily visualized by appropriate bioassay systems. In the bioassay system, a herbicide composition including a volatile growth regulator herbicide (e.g., 2,4-D, dicamba, or otherwise) and optionally one or more adjuvants (e.g., including an aminopolycarboxylate salt or not) is applied foliarly to a target plant generally resistant to the herbicide (e.g., wheat plants, such as amber red wheat) or is applied to a target soil area without a target plant. Twenty minutes later, soybean plants (e.g., PIONEER 92M92 soybean plants) or other plants sensitive to the volatile growth regulator herbicide are placed in the middle of the sprayed target plants and/or soil.
The following examples illustrate the disclosed compositions and methods, but are not intended to limit the scope of any claims thereto. […] In the examples of Tables 1-3, target weeds were initially treated with glyphosate and any additional adjuvants as indicated in the tables. […] In the examples of Table 4, target soil was initially treated with dicamba and any additional adjuvants as indicated in the table, and then tomato plants were inserted into a ring of the treated soil for 24 hours. After 24 hours of sitting in the treated soil (i.e., during which time any volatilized herbicide from the soil could contact the tomato plants), the tomato plants were removed from the treated soil and grown on a laboratory bench.

Data set [5] can be described thus: pH of the treatment solutions (Table 3). The data set is classed as physicochemical. As to conditions: pH of treatment solution, DTPA treatments adjusted with KOH (5N).
Setting [6] is: Table 1, glyphosate 0.20 (Run 1) / 0.25 (Run 2) lb a.e./A, pH adjusted to 5.5 with KOH.
Setting [7] is: Table 1, glyphosate 0.20 / 0.25 lb a.e./A.
[8] abbreviates: Table 2, glyphosate 0.275 (exp 1) / 0.20 (exp 2) lb a.e./A.
Where [9] appears, read: Table 2, glyphosate 0.275 / 0.20 lb a.e./A.
[10] abbreviates: tomato in treated soil ring: duration, dicamba 0.50 lb a.e./A.
The mark [11] stands for this setting: tomato inserted 1 DAT (in 1st DAT out 2nd DAT), 24 hours.
[12] abbreviates: tomato inserted 2 DAT (in 2nd DAT out 3rd DAT), 24 hours.
[13] abbreviates: tomato inserted 3 DAT (in 3rd DAT out 4th DAT), 24 hours.
The mark [14] stands for this setting: tomato inserted 4 DAT (in 4th DAT out 5th DAT), 24 hours.
Setting [15] is: tomato inserted 7 DAT (in 7th DAT out 8th DAT), 24 hours.

Like-named read-outs stand apart in the source and are kept apart here.

As for `O=C(O)CN(CCN(CC(=O)O)CC(=O)O)CCN(CC(=O)O)CC(=O)O` [1.0% w/v DTPA, Diethylenetriaminepentaacetic acid], the “% CONTROL 7 DAT” value was found to be 1% in data set [1] (setting [6]), 0% in data set [1] (setting [8]) and 0% in data set [2]. In addition, the “% CONTROL 10 DAT” value came out at 5% in data set [1] (setting [7]), 0% in data set [1] (setting [9]) and 0% in data set [2]. The “% CONTROL 14 DAT” value in data set [1] (setting [7]) was 6%; in data set [1] (setting [9]) it was 0%; in data set [2], 5%. For the same compound, the figures for the “% CONTROL 21 DAT” value in data set [1] (setting [7]), in data set [1] (setting [9]) and in data set [2] were 1%, 3% and 0%, respectively.
For `O=C(O)CN(CCN(CC(=O)O)CC(=O)O)CC(=O)O` [1.0% w/v EDTA, Ethylenediaminetetraacetic acid], in data set [1] (setting [8]), the “% CONTROL 7 DAT” value was determined as 0%. In data set [1] (setting [9]), the “% CONTROL 10 DAT” value turned out to be 0%, the “% CONTROL 14 DAT” value was found to be 0% and the “% CONTROL 21 DAT” value stood at 3%.
Consider `O=C(O)CN(CCN(CC(=O)O)CC(=O)O)CC(=O)O` [2 0% w/v EDTA, Ethylenediaminetetraacetic acid], for which the “% CONTROL 7 DAT” value in data set [1] (setting [8]) came out at 0%. In addition, in data set [1] (setting [9]), the “% CONTROL 10 DAT” value amounted to 0%, the “% CONTROL 14 DAT” value is reported as 0% and the “% CONTROL 21 DAT” value turned out to be 0%.
Consider `CCCCC(CC)COC(=O)COc1ccc(Cl)cc1Cl` (centres unmarked) [2,4-D 2-ethylhexyl ester], for which, in data set [3], the vapor pressure is ~4.8×10^−4 Pa.
As to `CCCCOCCOC(=O)COc1ccc(Cl)cc1Cl` [2,4-D butoxyethyl ester], the vapor pressure in data set [3] is listed as ~3.2×10^−4 Pa.
Consider `CNC.O=C(O)COc1ccc(Cl)cc1Cl` [2,4-D dimethylamine salt], for which, in data set [3], the vapor pressure was ~1.3×10^−5 Pa.
For `CC(C)OC(=O)COc1ccc(Cl)cc1Cl` [2,4-D isopropyl ester], the vapor pressure in data set [3] is ~1.9×10^1 Pa.
With `O=C(O)CN(CCN(CC(=O)O)CC(=O)O)CCN(CC(=O)O)CC(=O)O` [2.0% w/v DTPA, Diethylenetriaminepentaacetic acid], the “% CONTROL 7 DAT” value in data set [1] (setting [8]) turned out to be 0%. In data set [1] (setting [9]), the “% CONTROL 10 DAT” value was found to be 3%, the “% CONTROL 14 DAT” value was found to be 0% and the “% CONTROL 21 DAT” value was determined as 3%.
With `COc1c(Cl)ccc(Cl)c1C(=O)O` [DICAMBA DGA, 3,6-dichloro-2-methoxybenzoic acid], the “% INJURY 7 DAT” value in data set [4] (tomato in treated soil ring: duration, dicamba 0.50 lb a.e./A on bare field soil kept wet, 20 gpa, 25 psi) worked out at 25%; in data set [4] (tomato inserted 1 DAT (in 1st DAT out 2nd DAT), 24 hours, dicamba 0.50 lb a.e./A), 33%; in data set [4] (setting [12]), 13%; in data set [4] (setting [13]), 20%; in data set [4] (setting [14]) it was 25%; in data set [4] (setting [15]), 17%. Further, the “% INJURY 10 DAT” value came to 27% in data set [4] (setting [10]); 37% in data set [4] (setting [11]); 23% in data set [4] (setting [12]); 22% in data set [4] (setting [13]); 27% in data set [4] (setting [14]); 18% in data set [4] (setting [15]). Moreover, the “% INJURY 14 DAT” value came to 30% in data set [4] (setting [10]); 35% in data set [4] (setting [11]); 20% in data set [4] (setting [12]); 2% in data set [4] (setting [13]); 15% in data set [4] (setting [14]); 20% in data set [4] (setting [15]). Also, the “% INJURY 21 DAT” value in data set [4] (setting [10]) worked out at 27%; in data set [4] (setting [11]) it was 32%; in data set [4] (setting [12]) it was 15%; in data set [4] (setting [13]) it was 8%; in data set [4] (setting [14]), 25%; in data set [4] (setting [15]), 17%. Also, the “% INJURY 28 DAT” value in data set [4] (setting [10]) was 27%; in data set [4] (setting [11]), 25%; in data set [4] (setting [12]) it was 18%; in data set [4] (setting [13]) it was 7%; in data set [4] (setting [14]), 22%; in data set [4] (setting [15]) it was 7%.
Take `O=C(O)CNCP(=O)(O)O` [GLYPHOSATE, N-(phosphonomethyl)glycine]: the pH in data set [5] worked out at 4.7. The results for the “% CONTROL 7 DAT” value in data set [1] (setting [6]), in data set [1] (setting [8]) and in data set [2] were 39%, 49% and 12%, respectively. Moreover, the “% CONTROL 10 DAT” value in data set [1] (setting [7]) is 37%; in data set [1] (setting [9]), 48%; in data set [2], 12%. Besides, the entries for the “% CONTROL 14 DAT” value in data set [1] (setting [7]), in data set [1] (setting [9]) and in data set [2] were 40%, 48% and 10%, respectively. Moreover, the “% CONTROL 21 DAT” value in data set [1] (setting [7]) was determined as 34%; in data set [1] (setting [9]) it was 45%; in data set [2] it was 6%.

Source of the values: patent publication US10842149B2, “Water conditioning adjuvant compositions and related methods for reducing herbicide volatility” (BOARD OF TRUSTEES OF MICHIGAN STATE UNIVERSITY, priority 2017, dated 2020).
